In the supplement of paper PMC10307832:

Assays:
Assay in all cases: relative viability (nuclei count vs DMSO), 5 days (fraction); higher = more cells survive
Afatinib = compound: CN(C)C/C=C/C(=O)Nc1cc2c(Nc3ccc(F)c(Cl)c3)ncnc2cc1O[C@H]1CCOC1 [Afatinib]
Procedure, shortened: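 Viability is treated-well nuclei as a fraction of vehicle-well nuclei, reported as the median across plates. Before counting, lung cancer cell lines were kept overnight at 37 °C in 1536-well plates, pinned with five √10-spaced library-drug doses on vehicle-anchored plates, and left 5 days without medium change, then fixed, permeabilised and Hoechst-stained in one step, imaged at 4× and counted by MetaXpress. A plate passed only if control CV was below 25% and at least one doubling occurred.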

Afatinib + Phenformin = compound: CN(C)C/C=C/C(=O)Nc1cc2c(Nc3ccc(F)c(Cl)c3)ncnc2cc1O[C@H]1CCOC1 [Afatinib] + N=C(N)NC(=N)NCCc1ccccc1 [Phenformin] (partner 250 µM)
Procedure, shortened: (§1)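 For relative viability, nuclei counts in treated wells were divided by those in vehicle wells. Lung cancer cell lines had been pin-tool dosed in 1536-well plates the day after seeding and cultured for 5 days, then fixed and stained in one step (final 0.05% Triton X-100, 1% formaldehyde, 1 ug/ml Hoechst) and imaged at 4×. Doses were one drug alone or a fixed anchor-drug dose plus five library-drug doses (not always all listed) in √10 steps, and values are duplicate-plate medians.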

Afatinib + OSI-027 = compound: CN(C)C/C=C/C(=O)Nc1cc2c(Nc3ccc(F)c(Cl)c3)ncnc2cc1O[C@H]1CCOC1 [Afatinib] + COc1cccc2cc(-c3nc([C@H]4CC[C@H](C(=O)O)CC4)n4ncnc(N)c34)[nH]c12 [OSI-027] (partner 0.5 µM)
Procedure, shortened: as §1

Afatinib + Trametinib = compound: CN(C)C/C=C/C(=O)Nc1cc2c(Nc3ccc(F)c(Cl)c3)ncnc2cc1O[C@H]1CCOC1 [Afatinib] + CC(=O)Nc1cccc(-n2c(=O)n(C3CC3)c(=O)c3c(Nc4ccc(I)cc4F)n(C)c(=O)c(C)c32)c1 [Trametinib] (partner 0.02 µM)
Procedure, shortened: as §1

Cell Line | relative viability (Afatinib; 0.005 µM) | relative viability (Afatinib; 0.01581 µM) | relative viability (Afatinib; 0.05 µM) | relative viability (Afatinib; 0.1581 µM) | relative viability (Afatinib; 0.5 µM) | relative viability (Afatinib + Phenformin; first compound 0.005 µM) | relative viability (Afatinib + Phenformin; first compound 0.01581 µM) | relative viability (Afatinib + Phenformin; first compound 0.05 µM) | relative viability (Afatinib + Phenformin; first compound 0.1581 µM) | relative viability (Afatinib + Phenformin; first compound 0.5 µM) | relative viability (Afatinib + OSI-027; first compound 0.005 µM) | relative viability (Afatinib + OSI-027; first compound 0.01581 µM) | relative viability (Afatinib + OSI-027; first compound 0.05 µM) | relative viability (Afatinib + OSI-027; first compound 0.1581 µM) | relative viability (Afatinib + OSI-027; first compound 0.5 µM) | relative viability (Afatinib + Trametinib; first compound 0.005 µM) | relative viability (Afatinib + Trametinib; first compound 0.01581 µM) | relative viability (Afatinib + Trametinib; first compound 0.05 µM) | relative viability (Afatinib + Trametinib; first compound 0.1581 µM) | relative viability (Afatinib + Trametinib; first compound 0.5 µM)
HCC-78 | 1.07 | 0.89 | 0.898 | 0.791 | 0.815 | 0.892 | 0.515 | 0.593 | 0.648 | 0.559 | 0.443 | 0.326 | 0.331 | 0.317 | 0.283 | 0.788 | 0.677 | 0.723 | 0.559 | 0.698
HCC-366 | 1.03 | 1.04 | 1.03 | 0.985 | 0.989 | 0.588 | 0.61 | 0.611 | 0.632 | 0.595 | 0.947 | 0.965 | 0.969 | 0.824 | 0.788 | 0.361 | 0.247 | 0.353 | 0.293 | 0.29
HCC-827 | 0.172 | 0.169 | 0.212 | 0.175 | 0.162 | 0.137 | 0.119 | 0.152 | 0.119 | 0.137 | 0.159 | 0.122 | 0.153 | 0.153 | 0.141 | 0.16 | 0.165 | 0.179 | 0.161 | 0.15
HOP-62 | 1.12 | 0.989 | 1.05 | 1.03 | 1.08 | 0.862 | 0.561 | 0.748 | 0.719 | 0.629 | 0.947 | 0.835 | 0.826 | 0.933 | 0.827 | 0.354 | 0.38 | 0.419 | 0.333 | 0.378
IA-LM | 0.925 | 0.868 | 0.905 | 0.883 | 0.871 | – | – | – | – | – | – | – | – | – | – | – | – | – | – | –
LC-2-ad | 1.06 | 0.957 | 1.04 | 0.956 | 1.05 | 0.66 | 0.514 | 0.585 | 0.541 | 0.52 | 0.871 | 0.67 | 0.823 | 0.575 | 0.622 | 0.954 | 0.914 | 0.92 | 0.832 | 0.87
LCLC-97TM1 | 1.1 | 0.878 | 1.01 | 0.993 | 0.943 | 0.439 | 0.398 | 0.438 | 0.404 | 0.391 | 0.561 | 0.502 | 0.629 | 0.43 | 0.457 | 0.17 | 0.215 | – | 0.153 | 0.171
LCLC-103H | 0.962 | 0.945 | 0.974 | 0.945 | 1.03 | 0.319 | 0.358 | 0.326 | 0.37 | 0.353 | 0.48 | 0.46 | 0.54 | 0.482 | 0.479 | 0.602 | 0.698 | 0.736 | 0.634 | 0.697
LK-2 | 1.25 | 0.91 | 0.926 | 0.977 | 0.956 | 0.471 | 0.306 | 0.422 | 0.488 | 0.574 | 0.213 | 0.188 | 0.194 | 0.156 | 0.216 | 0.908 | 0.846 | 0.633 | 0.78 | 0.73
